Laboratory results reported in ChEMBL document CHEMBL4665888, “[1,2,4]Triazolo[1,5-a]pyrimidine Phosphodiesterase 2A Inhibitors: Structure and Free-Energy Perturbation-Guided Exploration” (J Med Chem, 2020).
In brackets after ≈: the same amount, converted by molar mass.

What was measured:
[1] = rat, in vivo, po, 10 mg/kg
Description: Plasma concentration in Long-Evans rat at 10 mg/kg, po

[2] = rat, in vivo, po, 10 mg/kg; remark: listed apart in the source
Description: Drug concentration in Long-Evans rat brain at 10 mg/kg, po

in vivo = details: Long-Evans, rat, brain/plasma, po, 10 mg/kg
Description: Ratio of drug concentration in Long-Evans rat brain to plasma at 10 mg/kg, po

physchem = details: pH 7.4 buffer
Description: Solubility in pH 7.4 buffer

SMILES	Cp [1]	Drug uptake [2]	Kp (in vivo)	solubility (physchem)
C[C@@H]1CCN(C(=O)c2ccc3occc3c2)C[C@H]1c1cc(C(F)F)nc2ncnn12	1640 ng/mL	788 ng/mL	0.5	
CS(=O)(=O)n1ccc2cc(C(=O)N3CCCC(c4ccnc5ncnn45)C3)ccc21 (racemic)				105 µM (≈ 44.6 µg/mL)
